Source: patent publication US9751840B2, “R-7-(3-aminomethyl-4-methoxyimino-3-methyl-pyrrolidin-1-yl)-1-cyclopropyl-6-fluoro-4-oxo-acid and L-aspartic acid salt, process for the preparation thereof and pharmaceutical composition comprising the same for antimicrobial” (ARIBIO CO. LTD., priority 2009, dated 2017)
Read-outs that look alike come from different tables or passages of the source.

Key:
[1] = In vivo pharmacokinetic test; set-up: species or system SD rats; details: rats; for AUC(0-t) / Cmax / Tmax: SD, rat, plasma
Description: The L-aspartate and hydrochloride according to the present invention were orally or intravenously administered to SD rats, respectively and blood samples were collected at a predetermined time to compare in vivo pharmacokinetics.
Then, Cmax: maximum drug concentration, Tmax: maximum drug concentration time, T1/2: drug half-life, AUCO-t: area under the plasma concentration-time curve from time zero to t hours, and AUCO-inf: area under the plasma concentration-time curve from time zero to infinity.

[2] = Stability test in distilled water; format: physicochemical; details: 30 mg in 100 ml distilled water
[3] = In vivo tissue distribution test; set-up: species or system ICR mice; details: mouse, po; for Kp: ICR, 100 mg/kg
Description: An in vivo tissue distribution test was performed in order to confirm the degree of drug distribution of the L-aspartate and hydrochloride according to the present invention in each organ. After 8-week-old ICR mice were purchased and adapted in the laboratory, each salt was orally administered to the mouse at a dose of 100 mg/kg. The mice were bled and sacrificed at a predetermined time and each organ was drawn to measure the concentration in each organ. After the administration of hydrochloride and L-aspartate, each organ concentration over time, the area under the corresponding time-concentration curve, and the ratio of permeation into tissue were shown in Tables 5 and 6.
Then, P ratio is a ratio of permeation into muscle and calculated as intramuscular AUC/intraplasmic AUC.

[4] = system: polychromatic erythrocyte with one or more nuclei (MNPCE); assay: In vivo genotoxicity, micronucleus test; details: male mice, intraperitoneal, 7.5 mg/kg
Description: The following study performed to obtain in vivo genotoxicities, micronucleus test of L-aspartate and hydrochloric acid salt in male mice to the following procedure.

[5] = system: Male ICR mice; assay: Single dose toxicity in mice (LD50); details: single intraperitoneal dose, observed 14 days
Description: The following experiment was performed in order to observe the degree of toxicity of the L-aspartate according to the present invention.
Male ICR mice were used as experimental animals. 5 male ICR mice were divided into 6 dose groups, respectively and fasted except for water for 24 hours.

[6] = In vivo tissue distribution test; set-up: species or system ICR mice; details: ICR, mouse, spleen, po, 100 mg/kg; read-out: P ratio Spleen
[7] = Solubility test; format: physicochemical; details: room temperature, water
[8] = male, testicle, ICR mice, p.o. 100 mg/kg, read-out: Testicle concentration
[9] = brain, ICR mice, p.o. 100 mg/kg, read-out: Brain concentration
[10] = heart, ICR mice, p.o. 100 mg/kg, read-out: Heart concentration
[11] = kidney, ICR mice, p.o. 100 mg/kg, read-out: Kidney concentration
[12] = liver, ICR mice, p.o. 100 mg/kg, read-out: Liver concentration
[13] = lung, ICR mice, p.o. 100 mg/kg, read-out: Lung concentration
[14] = muscle, ICR mice, p.o. 100 mg/kg, read-out: Muscle concentration
[15] = plasma, ICR mice, p.o. 100 mg/kg, read-out: Plasma concentration
[16] = spleen, ICR mice, p.o. 100 mg/kg, read-out: Spleen concentration
[17] = testicle, ICR mice, p.o. 100 mg/kg, read-out: Testicle concentration
[18] = thymus, ICR mice, p.o. 100 mg/kg, read-out: Thymus concentration

CON=C1CN(c2nc3c(cc2F)c(=O)c(C(=O)O)cn3C2CC2)C[C@@]1(C)CN.Cl [Hydrochloride (Comparative Example 3)]
AUC(0-t) ([1]; iv, i.v. 10 mg/kg): 8720 ± 330 ng·h/mL
Cmax ([1]; iv, i.v. 10 mg/kg): 4460 ± 960 ng/mL
Tmax ([1]; iv, i.v. 10 mg/kg): 0 h
AUC(0-t) ([1]; po, p.o. 100 mg/kg): 44400 ± 21400 ng·h/mL
Cmax ([1]; po, p.o. 100 mg/kg): 7620 ± 3930 ng/mL
Tmax ([1]; po, p.o. 100 mg/kg): 2.13 ± 1.97 h
BA (%) ([1]; p.o. 100 mg/kg, calculated by ratio of AUC0-t): 50.96%
Content (%) 60? (after 3 weeks) ([2]; 60?, 3 weeks): 90.0%
Content (%) Initial ([2]; initial): 97.9%
Content (%) Room temperature (after 3 weeks) ([2]; room temperature, 3 weeks): 98.0%
Kp ([3]; brain, read-out: P ratio Brain): 0.27
Kp ([3]; heart, read-out: P ratio Heart): 4.19
Kp ([3]; kidney, read-out: P ratio Kidney): 6.59
Kp ([3]; liver, read-out: P ratio Liver): 10.5
Kp ([3]; lung, read-out: P ratio Lung): 5.59
Kp ([3]; muscle, read-out: P ratio Muscle): 3.92
Kp ([3]; thymus, read-out: P ratio Thymus): 4.83
Kp ([3]; male, testicle, read-out: P ratio Testicle): 1.7
concentration at 0.5 h [3, 8]: 4790 ng/g
concentration at 1 h [3, 8]: 8360 ng/g
concentration at 8 h [3, 8]: 7770 ng/g
concentration at 0.5 h [3, 9]: 2510 ng/g
concentration at 1 h [3, 9]: 3090 ng/g
concentration at 1.5 h [3, 9]: 2720 ng/g
concentration at 2 hr [3, 9]: 3180 ng/g
concentration at 3 h [3, 9]: 1990 ng/g
concentration at 5 h [3, 9]: 1600 ng/g
concentration at 8 h [3, 9]: 730 ng/g
concentration at 0.5 h [3, 10]: 59300 ng/g
concentration at 1 h [3, 10]: 61200 ng/g
concentration at 1.5 hr [3, 10]: 52700 ng/g
concentration at 2 hr [3, 10]: 57600 ng/g
concentration at 3 h [3, 10]: 25500 ng/g
concentration at 5 h [3, 10]: 17300 ng/g
concentration at 8 h [3, 10]: 8860 ng/g
concentration at 0.5 h [3, 11]: 90800 ng/g
concentration at 1 h [3, 11]: 87800 ng/g
concentration at 1.5 h [3, 11]: 75500 ng/g
concentration at 2 hr [3, 11]: 69900 ng/g
concentration at 3 h [3, 11]: 43000 ng/g
concentration at 5 h [3, 11]: 32800 ng/g
concentration at 8 h [3, 11]: 18000 ng/g
concentration at 0.5 h [3, 12]: 161000 ng/g
concentration at 1 h [3, 12]: 125000 ng/g
concentration at 1.5 h [3, 12]: 113000 ng/g
concentration at 2 hr [3, 12]: 109000 ng/g
concentration at 3 h [3, 12]: 69000 ng/g
concentration at 5 h [3, 12]: 55700 ng/g
concentration at 8 h [3, 12]: 27000 ng/g
concentration at 0.5 h [3, 13]: 82800 ng/g
concentration at 1 h [3, 13]: 79500 ng/g
concentration at 1.5 h [3, 13]: 73600 ng/g
concentration at 2 hr [3, 13]: 63700 ng/g
concentration at 3 h [3, 13]: 38800 ng/g
concentration at 5 h [3, 13]: 23400 ng/g
concentration at 8 h [3, 13]: 11400 ng/g
concentration at 0.5 h [3, 14]: 39800 ng/g
concentration at 1 h [3, 14]: 52000 ng/g
concentration at 1.5 h [3, 14]: 50400 ng/g
concentration at 2 hr [3, 14]: 50800 ng/g
concentration at 3 h [3, 14]: 28300 ng/g
concentration at 5 h [3, 14]: 18400 ng/g
concentration at 8 h [3, 14]: 8260 ng/g
concentration at 0.5 h [3, 15]: 15500 ng/mL
concentration at 1 h [3, 15]: 14200 ng/mL
concentration at 1.5 h [3, 15]: 12100 ng/mL
concentration at 2 hr [3, 15]: 12000 ng/mL
concentration at 3 h [3, 15]: 6240 ng/mL
concentration at 5 h [3, 15]: 4320 ng/mL
concentration at 8 h [3, 15]: 2290 ng/mL
AUC(0-t) ([3]; plasma, ICR mice, p.o. 100 mg/kg, read-out: AUC0-t Plasma): 53600 ng·h/mL
concentration at 0.5 h [3, 16]: 102000 ng/g
concentration at 1 h [3, 16]: 112000 ng/g
concentration at 1.5 hr [3, 16]: 107000 ng/g
concentration at 2 hr [3, 16]: 102000 ng/g
concentration at 3 h [3, 16]: 59800 ng/g
concentration at 5 h [3, 16]: 42100 ng/g
concentration at 8 h [3, 16]: 21500 ng/g
concentration at 1.5 hr [3, 17]: 12700 ng/g
concentration at 2 hr [3, 17]: 17000 ng/g
concentration at 3 h [3, 17]: 14200 ng/g
concentration at 5 h [3, 17]: 12900 ng/g
concentration at 0.5 h [3, 18]: 24600 ng/g
concentration at 1 h [3, 18]: 58000 ng/g
concentration at 1.5 hr [3, 18]: 60800 ng/g
concentration at 2 hr [3, 18]: 61300 ng/g
concentration at 3 h [3, 18]: 38400 ng/g
concentration at 5 h [3, 18]: 25700 ng/g
concentration at 8 h [3, 18]: 12800 ng/g
MNPCE number [4]: singificantly increase
Lethal dose 50 [5]: 176 mg/kg
Kp [6]: 8.66
solubility [7]: 93.3 mg/mL
